By IC50 is commonly meant the concentration needed to halve the response being measured.

The values that follow come from patent publication US20260008780A1, “SUBSTITUTED 3,4-DIHYDROISOQUINOLIN-1(2H)-ONE DERIVATIVES AND RELATED USES” (NodThera Limited, priority 2022, published 2026).

The subject of this test is IL-1β release upon NLRP3 activation in peripheral blood mononuclear cells (PBMC). The test can be described thus: PBMC IC50 Determination Assay. The note with it: Homo sapiens; PBMC from buffy coats, LPS 3 h, compound 30 min, then ATP (5 mM) or nigericin (10 μM) 1 h; IL-1β in media by ELISA (Protocol A) or HTRF (Protocol B). Type of test: cell-based. How it is done: The compounds of the present disclosure were tested for their inhibitory activity against IL-1β release upon NLRP3 activation in peripheral blood mononuclear cells (PBMC).
Protocol A. PBMC were isolated from buffy coats by density gradient centrifugation on Histopaque-1077 (Sigma, cat no. 10771). Isolated cells were seeded into the wells of a 96-well plate and incubated for 3 h with lipopolysaccharide (LPS). Following medium exchange, the compounds of the present disclosure were added (a single compound per well) and the cells were incubated for 30 min. Next, the cells were stimulated either with ATP (5 mM) or nigericin (10 μM) for 1 h and the cell culture media from the wells were collected for further analysis.
The release of IL-1β into the media was determined by a quantitative detection of IL-1β in the media using an IL-1p enzyme-linked immunosorbent assay (ELISA) Ready-SET-Go!, eBioscience cat. No. 88-7261-88. Briefly, in a first step, high affinity binding plates (Corning, Costar 9018 or NUNC Maxisorp Cat No. 44-2404) were coated overnight at 4° C. with specific capture antibody included in the kit (anti-human IL-1β ref 14-7018-68). Subsequently, plates were blocked with blocking buffer for 1 h at room temperature (rt) and after washing with a buffer (PBS with 0.05% Tween-20) incubated with protein standard and culture media. After 2 h of incubation at rt, plates were washed and incubated with biotinylated detection antibody included in the kit (anti-human IL-1β Biotin ref. 33-7110-68) for 1 h at rt. Plates were washed and incubated with HRP-streptavidin for 30 min at rt and washed again. The signal was developed after addition of 3,3′,5,5′-tetramethylbenzidine-peroxidase (TMB) until colour appeared and the reaction was stopped by 2 M H2SO4. A microplate spectrophotometer (BioTek) was used to detect signals with 450 nm. The detection range of IL-1β ELISA was […].
Protocol B. PBMC were isolated from buffy coats by density gradient centrifugation on Histopaque-1077 (Sigma, cat no. 10771). Isolated cells were seeded into the wells (280,000 cells/well) of a 96-well plate and incubated for 3 h with lipopolysaccharide (LPS, 1 μg/mL diluted 1000× from a 1 mg/mL stock solution). The compounds of the present disclosure were added (a single compound per well) and the cells were incubated for 30 min. Next, the cells were stimulated with ATP (5 mM final concentration diluted 20× from a 100 mM stock solution) for 1 h and the cell culture media from the wells were collected for further analysis.
The release of IL-1β into the media was determined by quantitative detection of IL-1β in the media using HTRF®, CisBio cat. No. 62HIL1BPEH. Briefly, cell culture supernatant were dispensed directly into the assay plate containing antibodies labelled with the HTRF® donor and acceptor. A microplate spectrophotometer (BMG) was used to detect signals at 655 nm and 620 nm. The detection range of IL-1β HTRF® was 39-6500 μg/mL.
Background: In an ELISA, binding on a coated surface is turned into a signal by an enzyme label.
Molecule `CCc1cc2c(s1)C(=O)N(CC(=O)Nc1ccc3c(c1)[nH]c(=O)n3C)CC21CC1` [Compound 44, 2-(2′-Ethyl-7′-oxo-5′H-spiro[cyclopropane-1,4′-thieno[2,3-c]pyridin]-6′(7′H)-yl)-N-(1-methyl-2-oxo-2,3-dihydro-1H-benzo[d]imidazol-5-yl)acetamide] came in with a 50% inhibitory concentration (IC50) of 1000 to 3000 nM.

On to `CCc1cc2c(s1)C(=O)N(CC(=O)Nc1ccc3nncn3n1)CC21CC1` [Compound 45, 2-{2′-Ethyl-7′-oxo-6′,7′-dihydro-5′H-spiro[cyclopropane-1,4′-thieno[2,3-c]pyridin]-6′-yl}-N-{[1,2,4]triazolo[4,3-b]pyridazin-6-yl}acetamide], for which the half-maximal inhibitory concentration (IC50) fell in the range of 100 to 1000 nM.

In turn, `CCc1cc2c(s1)C(=O)N(CC(=O)Nc1ncco1)CC21CC1` [Compound 46, 2-{2′-Ethyl-7′-oxo-6′,7′-dihydro-5′H-spiro[cyclopropane-1,4′-thieno[2,3-c]pyridin]-6′-yl}-N-(1,3-oxazol-2-yl)acetamide] came in with a concentration for half-maximal inhibition (IC50) of 100 to 1000 nM.

Molecule `CCc1cc2c(s1)C(=O)N(CC(=O)Nc1ccc3nncn3c1)CC21CC1` [Compound 47, 2-{2′-Ethyl-7′-oxo-6′,7′-dihydro-5′H-spiro[cyclopropane-1,4′-thieno[2,3-c]pyridin]-6′-yl}-N-{[1,2,4]triazolo[4,3-a]pyridin-6-yl}acetamide] gave a concentration for half-maximal inhibition (IC50) of 1000 to 3000 nM.

With `CCc1cc2c(s1)C(=O)N(CC(=O)Nc1ccc(OC)nc1)CC21CC1` [Compound 48, 2-{2′-Ethyl-7′-oxo-6′,7′-dihydro-5′H-spiro[cyclopropane-1,4′-thieno[2,3-c]pyridin]-6′-yl}-N-(6-methoxypyridin-3-yl)acetamide], the concentration for half-maximal inhibition (IC50) was 3000 to 10000 nM.

`CCc1cc2c(s1)C(=O)N(CC(=O)Nc1ccc3[nH]c(=O)n(C)c3c1)CC21CC1` [Compound 49, 2-{2′-Ethyl-7′-oxo-6′,7′-dihydro-5′H-spiro[cyclopropane-1,4′-thieno[2,3-c]pyridin]-6′-yl}-N-(3-methyl-2-oxo-2,3-dihydro-1H-1,3-benzodiazol-5-yl)acetamide] showed an IC50 of 3000 to 10000 nM.

`CCc1cc2c(s1)C(=O)N(CC(=O)Nc1ccncn1)CC21CC1` [Compound 50, 2-{2′-Ethyl-7′-oxo-6′,7′-dihydro-5′H-spiro[cyclopropane-1,4′-thieno[2,3-c]pyridin]-6′-yl}-N-(pyrimidin-4-yl)acetamide]: the IC50 was in the range of 100 to 1000 nM.

`CCc1cc2c(s1)C(=O)N(CC(=O)Nc1nccc(=O)[nH]1)CC21CC1` [Compound 51, 2-{2′-Ethyl-7′-oxo-6′,7′-dihydro-5′H-spiro[cyclopropane-1,4′-thieno[2,3-c]pyridin]-6′-yl}-N-(6-oxo-1,6-dihydropyrimidin-2-yl)acetamide]: the half-inhibitory concentration (IC50) is 3000 to 10000 nM.

Take `CCc1cc2c(s1)C(=O)N(CC(=O)Nc1ncc(-n3cccn3)cn1)CC21CC1` [Compound 52, 2-{2′-Ethyl-7′-oxo-6′,7′-dihydro-5′H-spiro[cyclopropane-1,4′-thieno[2,3-c]pyridin]-6′-yl}-N-[5-(1H-pyrazol-1-yl)pyrimidin-2-yl]acetamide]: the IC50 lay within 1000 to 3000 nM.

On to `CCc1cc2c(s1)C(=O)N(CC(=O)Nc1ncc([N+](=O)[O-])cn1)CC21CC1` [Compound 53, 2-{2′-Ethyl-7′-oxo-6′,7′-dihydro-5′H-spiro[cyclopropane-1,4′-thieno[2,3-c]pyridin]-6′-yl}-N-(5-nitropyrimidin-2-yl)acetamide], for which the half-inhibitory concentration (IC50) was in the range of 100 to 1000 nM.

Regarding `CCc1cc2c(s1)C(=O)N(CC(=O)Nc1ncc(Cl)cn1)CC21CC1` [Compound 54, N-(5-Chloropyrimidin-2-yl)-2-{2′-ethyl-7′-oxo-6′,7′-dihydro-5′H-spiro[cyclopropane-1,4′-thieno[2,3-c]pyridin]-6′-yl}acetamide], the IC50 lay within 100 to 1000 nM.

The molecule `CCc1cc2c(s1)C(=O)N(CC(=O)Nc1ccc(C#N)cn1)CC21CC1` [Compound 55, N-(5-Cyanopyridin-2-yl)-2-{2′-ethyl-7′-oxo-6′,7′-dihydro-5′H-spiro[cyclopropane-1,4′-thieno[2,3-c]pyridin]-6′-yl}acetamide] had an IC50 of 1000 to 3000 nM.
